Laboratory results: ChEMBL document CHEMBL1201862, “PubChem BioAssay data set” (2004)
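Step 1: Grow cells in 96-well plates. Step 2: Expose to compound for 48 hours at 5 concentrations. Step 3: Interpolate endpoints linearly; if unreached, use highest concentration. Here, GI50 denotes the concentration required for 50% inhibition of growth.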 Calls of active or inactive are those of the source. Rule as the data show it: active = GI50 up to about 1.1 µM and inactive = higher.

How the values were obtained:
Experiment in all cases: NCI anticancer screen, dose series, 48 h
RPMI-8226 = tested on: RPMI-8226
MDA-N = tested on: MDA-N
NCI-H522 = tested on: NCI-H522
SK-MEL-5 = tested on: SK-MEL-5
EKVX = tested on: EKVX
COLO 205 = tested on: COLO 205
SR = tested on: SR
KM12 = tested on: KM12
NCI-H460 = tested on: NCI-H460
MOLT-4 = tested on: MOLT-4
786-0 = tested on: 786-0
T47D = tested on: T47D
IGROV-1 = tested on: IGROV-1
LOX IMVI = tested on: LOX IMVI
Malme-3M = tested on: Malme-3M
SNB-19 = tested on: SNB-19
HCC 2998 = tested on: HCC 2998
CCRF-CEM = tested on: CCRF-CEM
OVCAR-4 = tested on: OVCAR-4

Measured: GI50

Cc1ncc(CO)c(/C=N/CCCCCC/N=C/c2c(CO)cnc(C)c2[O-])c1[O-].[Mg+2]
inactive: RPMI-8226 > 100 µM | MDA-N > 100 µM | NCI-H522 > 100 µM | SK-MEL-5 > 100 µM | EKVX > 100 µM | COLO 205 > 100 µM | SR 92.7 µM | KM12 > 100 µM | NCI-H460 > 100 µM | MOLT-4 > 100 µM | 786-0 > 100 µM | T47D > 100 µM | IGROV-1 > 100 µM | LOX IMVI > 100 µM | Malme-3M > 100 µM | SNB-19 > 100 µM | HCC 2998 > 100 µM | CCRF-CEM 36.2 µM | OVCAR-4 > 100 µM

O=C1NC(=O)c2ccccc2/C1=C/c1ccc2c(c1)OCO2
inactive: RPMI-8226 19.3 µM | MDA-N 26 µM | NCI-H522 31.3 µM | SK-MEL-5 15.1 µM | EKVX 51.1 µM | COLO 205 > 10 µM | SR 36 µM | KM12 17 µM | MOLT-4 11.5 µM | 786-0 8.02 µM | T47D > 100 µM | IGROV-1 23.7 µM | LOX IMVI 20.9 µM | Malme-3M 31.3 µM | SNB-19 32 µM | HCC 2998 14.6 µM | CCRF-CEM 5.92 µM | OVCAR-4 49.1 µM

CCC/N=C(/NC(=O)c1ccc(Cl)cc1)SC
inactive: RPMI-8226 26.5 µM | MDA-N > 100 µM | NCI-H522 52 µM | SK-MEL-5 48.6 µM | EKVX > 100 µM | COLO 205 > 100 µM | SR 36.8 µM | KM12 > 100 µM | NCI-H460 90.6 µM | MOLT-4 58.7 µM | 786-0 > 100 µM | T47D 65.9 µM | IGROV-1 > 100 µM | LOX IMVI > 100 µM | Malme-3M > 100 µM | SNB-19 17.6 µM | HCC 2998 > 100 µM | CCRF-CEM > 100 µM | OVCAR-4 50.9 µM

CNC(c1ccncc1)C(NC)c1ccncc1 (configuration not stated)
inactive: RPMI-8226 > 100 µM | MDA-N > 100 µM | NCI-H522 > 100 µM | SK-MEL-5 > 100 µM | EKVX > 100 µM | COLO 205 > 100 µM | SR > 100 µM | KM12 > 100 µM | MOLT-4 > 100 µM | 786-0 > 100 µM | T47D > 100 µM | IGROV-1 > 100 µM | LOX IMVI > 100 µM | Malme-3M > 100 µM | SNB-19 > 100 µM | HCC 2998 > 100 µM | CCRF-CEM > 100 µM | OVCAR-4 > 100 µM

COc1ccc(-n2cnc3c(NC(CCSC)C(=O)O)ncnc32)cc1 (configuration not stated)
inactive: RPMI-8226 > 100 µM | MDA-N > 100 µM | NCI-H522 > 100 µM | SK-MEL-5 > 100 µM | EKVX > 100 µM | COLO 205 > 100 µM | SR > 100 µM | KM12 > 100 µM | NCI-H460 > 100 µM | MOLT-4 > 100 µM | 786-0 > 100 µM | T47D > 100 µM | IGROV-1 > 100 µM | LOX IMVI > 100 µM | SNB-19 > 100 µM | HCC 2998 > 100 µM | CCRF-CEM > 100 µM | OVCAR-4 > 100 µM

COc1ccccc1/C=C1\Sc2scc(-c3ccc(O)c(O)c3)[n+]2C1=O
inactive: RPMI-8226 13.8 µM | MDA-N 23.9 µM | NCI-H522 8.99 µM | SK-MEL-5 18.1 µM | EKVX 46.6 µM | COLO 205 19.6 µM | SR 6.67 µM | KM12 32 µM | NCI-H460 18.8 µM | MOLT-4 13.9 µM | 786-0 15.2 µM | T47D 16.3 µM | IGROV-1 15.9 µM | LOX IMVI 18 µM | SNB-19 35.8 µM | HCC 2998 16.6 µM | CCRF-CEM 2.57 µM | OVCAR-4 26.8 µM

Cc1ccc(-c2n[nH]c(=O)n2NC(=O)c2ccccc2C(=O)O)cc1
inactive: RPMI-8226 > 100 µM | MDA-N > 100 µM | NCI-H522 > 100 µM | SK-MEL-5 > 100 µM | SR > 100 µM | KM12 > 100 µM | NCI-H460 > 100 µM | MOLT-4 > 100 µM | 786-0 > 100 µM | T47D 72.8 µM | IGROV-1 > 100 µM | LOX IMVI > 100 µM | Malme-3M > 100 µM | SNB-19 > 100 µM | HCC 2998 > 100 µM

N#Cc1c(-c2ccc([N+](=O)[O-])cc2)c2c([nH]c1=O)-c1ccccc1CCC2
inactive: RPMI-8226 30.8 µM | MDA-N 94.2 µM | NCI-H522 41.5 µM | SK-MEL-5 51.9 µM | EKVX > 100 µM | COLO 205 83.9 µM | SR 29.6 µM | KM12 40.7 µM | NCI-H460 51.1 µM | MOLT-4 39.4 µM | 786-0 > 100 µM | T47D 21.5 µM | IGROV-1 46.8 µM | LOX IMVI 56.6 µM | Malme-3M 56.6 µM | SNB-19 70.1 µM | HCC 2998 22.6 µM | OVCAR-4 65.6 µM

N[C@H]1c2c(Br)sc(Br)c2C(=O)[C@H]1O
inactive: RPMI-8226 27.4 µM | MDA-N 13.2 µM | NCI-H522 3.18 µM | SK-MEL-5 12.5 µM | EKVX 12.9 µM | COLO 205 6.18 µM | SR 2.69 µM | KM12 34.9 µM | NCI-H460 19.2 µM | MOLT-4 5.14 µM | 786-0 18.6 µM | T47D 21.9 µM | IGROV-1 14 µM | LOX IMVI 3.61 µM | Malme-3M 11.6 µM | SNB-19 21.8 µM | HCC 2998 13.8 µM | CCRF-CEM 2.72 µM | OVCAR-4 11.4 µM

OC[C@H]1CC(c2nn[nH]n2)[C@H](O)[C@@H]1O (some centres not stated)
inactive: RPMI-8226 > 100 µM | MDA-N > 100 µM | NCI-H522 > 100 µM | SK-MEL-5 > 100 µM | COLO 205 > 100 µM | SR > 100 µM | KM12 > 100 µM | NCI-H460 > 100 µM | MOLT-4 > 100 µM | 786-0 > 100 µM | T47D > 100 µM | IGROV-1 > 100 µM | LOX IMVI > 100 µM | Malme-3M > 100 µM | SNB-19 > 100 µM | HCC 2998 > 100 µM | CCRF-CEM > 100 µM | OVCAR-4 > 100 µM

O=C1C2CC=CCC2C(=O)N1n1c(Cc2ccc(Cl)cc2)n[nH]c1=O (configuration not stated)
inactive: RPMI-8226 > 100 µM | MDA-N > 100 µM | NCI-H522 > 100 µM | SK-MEL-5 > 100 µM | EKVX > 100 µM | COLO 205 > 100 µM | SR > 100 µM | KM12 > 100 µM | MOLT-4 > 100 µM | 786-0 > 100 µM | T47D > 100 µM | IGROV-1 > 100 µM | LOX IMVI > 100 µM | Malme-3M > 100 µM | HCC 2998 > 100 µM | CCRF-CEM > 100 µM | OVCAR-4 > 100 µM
